Results taken from patent publication US7252992B2, “Cell line and uses thereof” (Abbott Laboratories, priority 2003, dated 2007).

Columns and labels:
[1] = biological target: T1, melanin concentrating hormone receptor (MCHR) (Homo sapiens, UniProt Q99705); assay: Ca++-mobilization assay using I3.4.2 cells (FLIPR); type: cell-based; details: for inhibition of MCH-stimulated intracellular Ca++-flux: T42402I3.4.2 cell line, FIG. 3
T1 construct: endogenous in cells; host or cells: T42402I3.4.2 (I3.4.2) cells, ATCC PTA-5201, derived from IMR32 (ATCC CCL-127) by transfection of a Galpha16/Zeocin-resistance plasmid
T1 sequence (Q99705 whole entry): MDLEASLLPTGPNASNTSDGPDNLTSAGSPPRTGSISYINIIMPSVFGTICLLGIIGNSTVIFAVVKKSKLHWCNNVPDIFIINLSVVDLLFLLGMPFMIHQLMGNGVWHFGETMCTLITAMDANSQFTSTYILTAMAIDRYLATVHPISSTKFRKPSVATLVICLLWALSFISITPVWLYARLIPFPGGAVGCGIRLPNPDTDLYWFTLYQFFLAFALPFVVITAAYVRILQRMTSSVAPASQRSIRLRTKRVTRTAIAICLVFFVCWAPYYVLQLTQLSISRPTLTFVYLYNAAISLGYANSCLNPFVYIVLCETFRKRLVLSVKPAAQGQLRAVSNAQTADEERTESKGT
Experimental: The following day, Zeocin (Invitrogen, Carlsbad, Calif.) was added to a final concentration of 20 μg/ml. Cells were maintained in this medium with periodic replacement until discrete colonies were observed. Individual colonies were isolated and propagated until sufficiently large cell populations were obtained such that the cell samples could be cryopreserved.
This intracellular calcium release is measured using a fluorometeric imaging plate reader (FLIPR™, Molecular Devices Corp., Sunnyvale, Calif.) in conjunction with the Ca^++-sensitive dye reagent (Calcium Assay Reagent, Molecular Devices Corp., Sunnyvale, Calif.). Release of Ca^++ from intracellular stores causes an increase in fluorescence of the dye that is proportional to Ca^++ concentration. Thus, this method may be utillized to identify agonist-s, antagonists, and inverse agonists of MCHR1.
In particular, the assay is carried out as follows: The cells are cultured in MEM/10% fetal bovine serum/50 μg/mL gentamicin/200 μg/ml Zeocin. […] Calcium Assay Reagent fluorescence is measured at 488 nm, with an exposure of 0.40 sec. and F-stop=2.0 and the laser set at 0.20-0.40 W constant light output.

[2] = biological target: T2, MCHR1 (Homo sapiens, UniProt Q99705); details: literature (Takekawa et al. 2002; Borowsky et al. 2002); cited from earlier work
T2 sequence (Q99705 whole entry, species assumed): as the sequence (Q99705 whole entry) above

[3] = biological target: T2, MCHR1; details: literature (Takekawa et al. 2002; Borowsky et al. 2002); cited from earlier work; remark: listed apart in the source

Compound | MCH-induced response (fluorescence) ([1]; MCH 1 μM, baseline approximately 700 RFU) | inhibition of MCH-stimulated intracellular Ca++-flux [1] | inhibition of activation of intracellular signaling by MCH [2] | inhibition of binding of 125I-labeled MCH to MCHR1 [3]
CSCC[C@@H]1NC(=O)[C@@H](NC(=O)[C@H](CCCNC(=N)N)NC(=O)[C@H](CC(C)C)NC(=O)[C@H](CCSC)NC(=O)[C@H](CC(=O)O)NC(=O)[C@H](Cc2ccccc2)NC(=O)[C@@H](N)CC(=O)O)CSSC[C@@H](C(=O)N[C@@H](Cc2c[nH]c3ccccc23)C(=O)N[C@@H](CCC(N)=O)C(=O)N[C@H](C(=O)O)C(C)C)NC(=O)[C@@H]2CCCN2C(=O)[C@H](CCCNC(=N)N)NC(=O)[C@H](Cc2ccc(O)cc2)NC(=O)[C@H](C(C)C)NC(=O)[C@H](CCCNC(=N)N)NC(=O)CNC(=O)[C@H](CC(C)C)NC1=O [MCH, melanin-concentrating hormone] | 5,000-6,000 relative fluorescence units (RFU) | – | – | –
COCC1=C(C(=O)OC)[C@H](c2ccc(F)c(F)c2)N(C(=O)NCCCN2CCC(c3cccc(NC(C)=O)c3)CC2)C(=O)N1 [SNAP-7941] | – | inhibited | inhibit | inhibit binding
CN(C)CC1CCc2cc(NC(=O)c3ccc(-c4ccc(F)cc4)cc3)ccc2C1 (stereo not shown) [T-226296] | – | inhibited | inhibit | inhibit binding
